Assay results reported in paper doi:10.1101/2021.10.07.463234v2 (biorxiv, 2021).
Counter-ions that a name gives are not always drawn.

Biological target: SARS-CoV-2 Mac1 (Severe acute respiratory syndrome coronavirus 2, UniProt P0DTD1)
Test: biochemical
Settings: for inhibition at 100 µM: read-out: %inhibition; for %inhibition: 100 µM, inhibitor

SMILES: CC[C@@H]([C@H](C)O)n1ncn(-c2ccc(N3CCN(c4ccc(OC[C@@H]5CO[C@@](Cn6cncn6)(c6ccc(F)cc6F)C5)cc4)CC3)cc2)c1=O [Posaconazole]
- inhibition at 100 µM: 37.1%

SMILES: C[C@]12CCC(=O)C=C1C=C[C@@H]1[C@@H]2CC[C@@]2(C)[C@H]1CC[C@@]2(O)CCC(=O)O [Potassium Canrenoate]
- inhibition at 100 µM: 0%

SMILES: CC(=O)O [Potassium acetate]
- inhibition at 100 µM: 11.3%

SMILES: C=CN1CCCC1=O [Povidone iodine]
- inhibition at 100 µM: 0%

SMILES: C=CC(=O)N1CCC(Oc2cc3c(Nc4ccc(Cl)c(Cl)c4F)ncnc3cc2OC)CC1 [Poziotinib (HM781-36B)]
- inhibition at 100 µM: 0%

SMILES: CCCCc1nc2cc(/C=C/C(=O)NO)ccc2n1CCN(CC)CC [Pracinostat (SB939)]
- inhibition at 100 µM: 3.38%

SMILES: C#CCC(Cc1cnc2nc(N)nc(N)c2n1)c1ccc(C(=O)N[C@@H](CCC(=O)O)C(=O)O)cc1 (stereo partly drawn) [Pralatrexate]
- inhibition at 100 µM: 13.2%

SMILES: C[n+]1ccccc1C=NO [Pralidoxime Iodide]
- inhibition at 100 µM: 22.4%

SMILES: C[n+]1ccccc1/C=N/O [Pralidoxime chloride]
- inhibition at 100 µM: 8.15%

SMILES: CCCN[C@H]1CCc2nc(N)sc2C1 [Pramipexole 2HCl Monohydrate]
- %inhibition: 5.796%

SMILES: CCCN[C@H]1CCc2nc(N)sc2C1 [Pramipexole dihydrochloride]
- %inhibition: 10.17%

SMILES: CCCN[C@H]1CCc2nc(N)sc2C1 [Pramipexole]
- %inhibition: 0%

SMILES: CC(C)N(CCNC(=O)CN1CCCC1=O)C(C)C [Pramiracetam]
- inhibition at 100 µM: 1.25%

SMILES: CCCCOc1ccc(OCCCN2CCOCC2)cc1 [Pramoxine HCl]
- inhibition at 100 µM: 25.7%

SMILES: O=C(Nc1cccc2c(=O)cc(-c3nnn[nH]3)oc12)c1ccc(OCCCCc2ccccc2)cc1 [Pranlukast]
- inhibition at 100 µM: 4.22%

SMILES: CC(C(=O)O)c1ccc2c(c1)Cc1cccnc1O2 (stereo not drawn) [Pranoprofen]
- inhibition at 100 µM: 17.8%

SMILES: CC(=O)Oc1cc2c(s1)CCN(C(C(=O)C1CC1)c1ccccc1F)C2 (stereo not drawn) [Prasugrel Hydrochloride]
- %inhibition: 0%

SMILES: CC(=O)Oc1cc2c(s1)CCN(C(C(=O)C1CC1)c1ccccc1F)C2 (stereo not drawn) [Prasugrel]
- %inhibition: 25.16%

SMILES: CC[C@H](C)C(=O)O[C@H]1C[C@H](O)C=C2C=C[C@H](C)[C@H](CC[C@@H](O)C[C@@H](O)CC(=O)O)[C@H]21 [Pravastatin sodium]
- inhibition at 100 µM: 28.2%

SMILES: O=C(C1CCCCC1)N1CC(=O)N2CCc3ccccc3C2C1 (stereo not drawn) [Praziquantel]
- inhibition at 100 µM: 0%

SMILES: COc1cc2nc(N3CCN(C(=O)c4ccco4)CC3)nc(N)c2cc1OC [Prazosin HCl]
- inhibition at 100 µM: 17.1%

SMILES: CC(=O)OCC(=O)[C@@]1(O)CC[C@H]2[C@@H]3CCC4=CC(=O)C=C[C@]4(C)[C@H]3[C@@H](O)C[C@@]21C [Prednisolone Acetate]
- inhibition at 100 µM: 15.9%

SMILES: C[C@]12C=CC(=O)C=C1CC[C@@H]1[C@@H]2[C@@H](O)C[C@@]2(C)[C@H]1CC[C@]2(O)C(=O)CO [Prednisolone]
- inhibition at 100 µM: 31%

SMILES: C[C@]12C=CC(=O)C=C1CC[C@@H]1[C@@H]2C(=O)C[C@@]2(C)[C@H]1CC[C@]2(O)C(=O)CO [Prednisone]
- inhibition at 100 µM: 0%

SMILES: CC(=O)[C@H]1CC[C@H]2[C@@H]3CC=C4C[C@@H](O)CC[C@]4(C)[C@H]3CC[C@]12C [Pregnenolone]
- inhibition at 100 µM: 14.7%

SMILES: CCCNC(C)C(=O)Nc1ccccc1C (stereo not drawn) [Prilocaine hydrochloride]
- inhibition at 100 µM: 0%

SMILES: COc1cc(NC(C)CCCN)c2ncccc2c1 (stereo not drawn) [Primaquine Diphosphate]
- inhibition at 100 µM: 5.42%

SMILES: CCC1(c2ccccc2)C(=O)NCNC1=O [Primidone]
- inhibition at 100 µM: 7.21%

SMILES: CCCC(C(=O)OCCN(CC)CC)(c1ccccc1)c1ccccc1 [Proadifen HCl]
- inhibition at 100 µM: 15.2%

SMILES: CC(C)(Sc1cc(C(C)(C)C)c(O)c(C(C)(C)C)c1)Sc1cc(C(C)(C)C)c(O)c(C(C)(C)C)c1 [Probucol]
- inhibition at 100 µM: 6.54%

SMILES: CCN(CC)CCNC(=O)c1ccc(N)cc1 [Procainamide HCl]
- inhibition at 100 µM: 17.1%

SMILES: CCN(CC)CCOC(=O)c1ccc(N)cc1 [Procaine]
- inhibition at 100 µM: 0%

SMILES: CNNCc1ccc(C(=O)NC(C)C)cc1 [Procarbazine HCl]
- inhibition at 100 µM: 0%

SMILES: O=C(O)CCc1nc2ccccc2[nH]1 [Procodazole]
- inhibition at 100 µM: 7.67%

SMILES: OC(CCN1CCCC1)(c1ccccc1)C1CCCCC1 (stereo not drawn) [Procyclidine HCl]
- inhibition at 100 µM: 6.52%

SMILES: Nc1ccc2cc3ccc(N)cc3nc2c1 [Proflavine Hemisulfate]
- inhibition at 100 µM: 0%

SMILES: CC(=O)[C@H]1CC[C@H]2[C@@H]3CCC4=CC(=O)CC[C@]4(C)[C@H]3CC[C@]12C [Progesterone]
- inhibition at 100 µM: 1.73%

SMILES: CN(C)CCCN1c2ccccc2Sc2ccccc21 [Promazine hydrochloride]
- inhibition at 100 µM: 0%

SMILES: CC(CN1c2ccccc2Sc2ccccc21)N(C)C (stereo not drawn) [Promethazine HCl]
- inhibition at 100 µM: 0%

SMILES: CCCNCC(O)COc1ccccc1C(=O)CCc1ccccc1 (stereo not drawn) [Propafenone HCl]
- inhibition at 100 µM: 0%

SMILES: CC(C)[N+](C)(CCOC(=O)C1c2ccccc2Oc2ccccc21)C(C)C [Propantheline bromide]
- inhibition at 100 µM: 0%

SMILES: CCCOc1ccc(C(=O)OCCN(CC)CC)cc1N [Proparacaine HCl]
- inhibition at 100 µM: 13%

SMILES: CCCOC(C(=O)OC1CCN(C)CC1)(c1ccccc1)c1ccccc1 [Propiverine hydrochloride]
- inhibition at 100 µM: 21.7%

SMILES: CC(C)c1cccc(C(C)C)c1O [Propofol]
- inhibition at 100 µM: 19.3%

SMILES: CCCc1cc(=O)[nH]c(=S)[nH]1 [Propylthiouracil]
- inhibition at 100 µM: 11.2%

SMILES: Cc1c(C(C)C)c(=O)n(-c2ccccc2)n1C [Propyphenazone (4-Isopropylantipyrine)]
- inhibition at 100 µM: 0%

SMILES: CCCCC[C@H](O)/C=C/[C@H]1[C@H](O)CC(=O)[C@@H]1C/C=C\CCCC(=O)O [Prostaglandin E2 (PGE2)]
- inhibition at 100 µM: 8.12%

SMILES: CCCc1cc(C(N)=S)ccn1 [Protionamide]
- inhibition at 100 µM: 50.9%

SMILES: NC(=O)[C@@H]1CCCN1C(=O)[C@H](Cc1c[nH]cn1)NC(=O)[C@@H]1CCC(=O)N1 [Protirelin]
- inhibition at 100 µM: 0%

SMILES: CC(O)Cn1cnc2c1c(=O)n(C)c(=O)n2C (stereo not drawn) [Proxyphylline]
- inhibition at 100 µM: 1.62%

SMILES: COCCCN1CCC(NC(=O)c2cc(Cl)c(N)c3c2OCC3)CC1 [Prucalopride Succinate]
- %inhibition: 23.93%

SMILES: COCCCN1CCC(NC(=O)c2cc(Cl)c(N)c3c2OCC3)CC1 [Prucalopride]
- %inhibition: 8.754%

SMILES: COc1ccc(C[C@H](N)C(=O)N[C@H]2[C@@H](O)[C@H](n3cnc4c(N(C)C)ncnc43)O[C@@H]2CO)cc1 [Puromycin 2HCl]
- inhibition at 100 µM: 4.39%

SMILES: NC(=O)c1cnccn1 [Pyrazinamide]
- inhibition at 100 µM: 24.2%

SMILES: CN(C)C(=O)Oc1ccc[n+](C)c1 [Pyridostigmine Bromide]
- inhibition at 100 µM: 0%

SMILES: Cc1ncc(COP(=O)(O)O)c(C=O)c1O [Pyridoxal phosphate]
- inhibition at 100 µM: 0%

SMILES: Cc1ncc(CO)c(CO)c1O [Pyridoxine]
- inhibition at 100 µM: 0%

SMILES: COc1ccc(CN(CCN(C)C)c2ccccn2)cc1 [Pyrilamine Maleate]
- inhibition at 100 µM: 5.37%

SMILES: CCc1nc(N)nc(N)c1-c1ccc(Cl)cc1 [Pyrimethamine]
- inhibition at 100 µM: 3.53%

SMILES: CCOC(=O)[C@H](CCc1ccccc1)N[C@@H](C)C(=O)N1Cc2ccccc2C[C@H]1C(=O)O [Quinapril HCl]
- inhibition at 100 µM: 25%

SMILES: C#C[C@]1(O)CC[C@H]2[C@@H]3CCc4cc(OC5CCCC5)ccc4[C@H]3CC[C@@]21C [Quinestrol]
- inhibition at 100 µM: 0%

SMILES: C=C[C@H]1CN2CC[C@H]1C[C@@H]2[C@@H](O)c1ccnc2ccc(OC)cc12 [Quinidine sulfate]
- inhibition at 100 µM: 0%

SMILES: C=C[C@H]1CN2CC[C@H]1C[C@H]2[C@H](O)c1ccnc2ccc(OC)cc12 [Quinine HCl Dihydrate]
- inhibition at 100 µM: 0%

SMILES: Cn1cc(CNCC2CCN(c3ncc(C(=O)NO)cn3)CC2)c2ccccc21 [Quisinostat (JNJ-26481585) 2HCl]
- inhibition at 100 µM: 0%

SMILES: CC(C)(C)c1cc(NC(=O)Nc2ccc(-c3cn4c(n3)sc3cc(OCCN5CCOCC5)ccc34)cc2)no1 [Quizartinib (AC220)]
- inhibition at 100 µM: 0%

SMILES: COc1cc(Nc2ncc(F)c(Nc3ccc4c(n3)N(COP(=O)(O)O)C(=O)C(C)(C)O4)n2)cc(OC)c1OC [R788 (Fostamatinib) Disodium]
- %inhibition: 15.48%

SMILES: COCCCOc1ccnc(C[S+]([O-])c2nc3ccccc3[nH]2)c1C (stereo not drawn) [Rabeprazole]
- %inhibition: 0.1163%

SMILES: CC(=O)SCC(Cc1ccccc1)C(=O)NCC(=O)OCc1ccccc1 (stereo not drawn) [Racecadotril]
- inhibition at 100 µM: 0%

SMILES: CC(CCc1ccc(O)cc1)NCC(O)c1ccc(O)cc1 (stereo not drawn) [Ractopamine HCl]
- inhibition at 100 µM: 0%

SMILES: Cc1cn(-c2cc(NC(=O)c3ccc(C)c(Nc4nccc(-c5cnccn5)n4)c3)cc(C(F)(F)F)c2)cn1 [Radotinib]
- inhibition at 100 µM: 1.77%

SMILES: CC(C)(C)Cn1c(N)nc2ccc(-c3[nH]c(C(C)(C)C)nc3-c3ccc(F)cc3)nc21 [Ralimetinib (LY2228820)]
- inhibition at 100 µM: 0.925%

SMILES: O=C(c1ccc(OCCN2CCCCC2)cc1)c1c(-c2ccc(O)cc2)sc2cc(O)ccc12 [Raloxifene HCl]
- inhibition at 100 µM: 63.1%

SMILES: Cc1nnc(C(=O)NC(C)(C)c2nc(C(=O)NCc3ccc(F)cc3)c(O)c(=O)n2C)o1 [Raltegravir (MK-0518)]
- %inhibition: 3.868%

SMILES: Cc1nnc(C(=O)NC(C)(C)c2nc(C(=O)NCc3ccc(F)cc3)c(O)c(=O)n2C)o1 [Raltegravir potassium]
- %inhibition: 7.113%

SMILES: Cc1nc(=O)c2cc(CN(C)c3ccc(C(=O)N[C@@H](CCC(=O)O)C(=O)O)s3)ccc2[nH]1 [Raltitrexed]
- inhibition at 100 µM: 24.8%

SMILES: O=C(O)CCn1c2c(c3ccccc31)C[C@H](NS(=O)(=O)c1ccc(F)cc1)CC2 [Ramatroban]
- inhibition at 100 µM: 4.2%

SMILES: CCC(=O)NCC[C@@H]1CCc2ccc3c(c21)CCO3 [Ramelteon]
- inhibition at 100 µM: 21%

SMILES: CCOC(=O)[C@H](CCc1ccccc1)N[C@@H](C)C(=O)N1[C@H](C(=O)O)C[C@@H]2CCC[C@@H]21 [Ramipril]
- inhibition at 100 µM: 0%

SMILES: Cn1cc(C(=O)[C@@H]2CCc3[nH]cnc3C2)c2ccccc21 [Ramosetron Hydrochloride]
- inhibition at 100 µM: 0%

SMILES: CNC(=C[N+](=O)[O-])NCCSCc1ccc(CN(C)C)o1 [Ranitidine Hydrochloride]
- inhibition at 100 µM: 10.7%

SMILES: COc1ccccc1OCC(O)CN1CCN(CC(=O)Nc2c(C)cccc2C)CC1 (stereo not drawn) [Ranolazine 2HCl]
- %inhibition: 0%
